ChEMBL document CHEMBL1201862, “PubChem BioAssay data set” (2004)
Values belong to the compound of their own block, whether it stands above or below them. Calls of active or inactive are those of the source.

Columns and labels:
[1] = target: Induced myeloid leukemia cell differentiation protein Mcl-1 (Homo sapiens, UniProt Q07820); assay: MCL1-BIM BH3 interaction inhibitors, dose response, biochemical, fluorescence polarization, BIM-BH3 peptide, 1536-well (AID 2217)
[2] = target: T1, Ubiquitin-conjugating enzyme E2 N (Homo sapiens, UniProt P61088); type: functional
T1 sequence (P61088 whole entry): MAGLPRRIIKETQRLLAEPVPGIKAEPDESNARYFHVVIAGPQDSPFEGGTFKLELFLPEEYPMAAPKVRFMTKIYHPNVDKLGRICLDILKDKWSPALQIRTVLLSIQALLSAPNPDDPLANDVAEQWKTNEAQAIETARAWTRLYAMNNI

[3] = target: T2, Estrogen receptor beta (Homo sapiens, UniProt Q92731); assay: ERβ–SRC-3 coactivator interaction inhibitors, confirmation, orthogonal assay, biochemical, ELISA, streptavidin-HRP readout (AID 1060)
T2 sequence (Q92731 whole entry): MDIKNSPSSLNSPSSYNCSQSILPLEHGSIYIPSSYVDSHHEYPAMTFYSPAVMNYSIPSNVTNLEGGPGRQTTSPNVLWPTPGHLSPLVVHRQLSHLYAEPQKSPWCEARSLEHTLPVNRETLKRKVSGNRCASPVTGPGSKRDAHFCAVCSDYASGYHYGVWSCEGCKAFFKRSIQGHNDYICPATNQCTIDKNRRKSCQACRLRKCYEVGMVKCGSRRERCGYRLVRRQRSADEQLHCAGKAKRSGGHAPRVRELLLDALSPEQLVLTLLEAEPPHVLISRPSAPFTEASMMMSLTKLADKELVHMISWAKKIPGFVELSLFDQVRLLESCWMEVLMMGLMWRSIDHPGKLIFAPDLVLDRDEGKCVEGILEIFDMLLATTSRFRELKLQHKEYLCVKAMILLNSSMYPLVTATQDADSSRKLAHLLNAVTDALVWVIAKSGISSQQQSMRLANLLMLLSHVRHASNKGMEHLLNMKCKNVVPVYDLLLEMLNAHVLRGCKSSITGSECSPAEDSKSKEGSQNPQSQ

[4] = target: T3, Bcl-2-related protein A1 (Mus musculus, UniProt Q07440); type: functional;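 further: confirmatory dose–response counterscreen on Bfl-1, used to check hits from a UBC13 polyubiquitin inhibitor campaign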
T3 sequence (Q07440 whole entry): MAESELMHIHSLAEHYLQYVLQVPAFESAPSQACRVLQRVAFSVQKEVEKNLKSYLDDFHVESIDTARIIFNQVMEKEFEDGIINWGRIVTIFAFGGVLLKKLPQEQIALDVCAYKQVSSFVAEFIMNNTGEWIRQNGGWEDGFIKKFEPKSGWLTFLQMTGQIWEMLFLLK

[5] = target: T1, Ubiquitin-conjugating enzyme E2 N; type: functional; remark: listed apart in the source
[6] = target: Large T antigen (Simian virus 40, UniProt P03070); type: functional, Betapolyomavirus macacae;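 further: Confirmatory-stage PubChem screen for compounds that inhibit SV40 T antigen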
Chain of Large T antigen (P03070 whole entry): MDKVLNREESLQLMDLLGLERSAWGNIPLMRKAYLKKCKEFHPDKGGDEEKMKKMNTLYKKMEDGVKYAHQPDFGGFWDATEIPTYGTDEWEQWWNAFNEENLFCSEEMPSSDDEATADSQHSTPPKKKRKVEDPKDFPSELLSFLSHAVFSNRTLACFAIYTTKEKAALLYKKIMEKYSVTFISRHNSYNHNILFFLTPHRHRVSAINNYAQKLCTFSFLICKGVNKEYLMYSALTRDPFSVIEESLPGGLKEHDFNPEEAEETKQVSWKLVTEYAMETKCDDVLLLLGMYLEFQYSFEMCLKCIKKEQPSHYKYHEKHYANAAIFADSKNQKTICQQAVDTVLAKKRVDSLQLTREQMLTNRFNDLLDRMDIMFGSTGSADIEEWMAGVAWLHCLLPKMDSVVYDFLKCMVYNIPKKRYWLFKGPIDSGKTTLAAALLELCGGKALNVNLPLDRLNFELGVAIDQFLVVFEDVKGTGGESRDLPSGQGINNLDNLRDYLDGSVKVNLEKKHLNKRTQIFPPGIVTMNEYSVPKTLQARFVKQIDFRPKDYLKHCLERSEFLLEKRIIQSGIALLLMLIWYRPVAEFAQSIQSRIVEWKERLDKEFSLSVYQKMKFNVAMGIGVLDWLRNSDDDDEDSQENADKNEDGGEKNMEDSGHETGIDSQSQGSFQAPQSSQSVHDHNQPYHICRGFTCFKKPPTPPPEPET

[7] = target: Bcl-2-like protein 1 (Homo sapiens, UniProt Q07817); assay: BCL-XL inhibitors, dose response, selectivity assay for MCL1 inhibitor project, biochemical, fluorescence polarization, 1536-well (AID 2218)
Chain of Bcl-2-like protein 1 (Q07817 whole entry): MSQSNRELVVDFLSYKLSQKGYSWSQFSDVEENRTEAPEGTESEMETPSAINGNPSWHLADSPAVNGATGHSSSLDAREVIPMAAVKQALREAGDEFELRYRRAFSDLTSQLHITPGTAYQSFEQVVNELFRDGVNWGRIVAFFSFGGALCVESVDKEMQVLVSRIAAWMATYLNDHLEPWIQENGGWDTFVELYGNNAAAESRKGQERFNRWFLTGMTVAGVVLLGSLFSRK

[8] = target: T4, Dual specificity protein phosphatase 6 (Rattus norvegicus, UniProt Q64346); assay: MKP-3 phosphatase inhibitors, primary screen, biochemical, rat enzyme, in vitro (AID 425)
T4 sequence (Q64346 whole entry): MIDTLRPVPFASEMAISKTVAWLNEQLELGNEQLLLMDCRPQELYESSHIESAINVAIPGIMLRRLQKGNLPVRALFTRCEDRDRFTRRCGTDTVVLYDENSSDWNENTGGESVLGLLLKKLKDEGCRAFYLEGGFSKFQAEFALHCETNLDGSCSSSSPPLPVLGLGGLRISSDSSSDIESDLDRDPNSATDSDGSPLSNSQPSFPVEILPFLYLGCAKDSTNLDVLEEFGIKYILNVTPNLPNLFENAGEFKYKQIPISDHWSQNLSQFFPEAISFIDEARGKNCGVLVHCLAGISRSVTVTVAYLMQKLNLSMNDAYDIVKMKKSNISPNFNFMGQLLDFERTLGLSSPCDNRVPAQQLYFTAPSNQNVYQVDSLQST

[9] = target: T5, Histone-lysine N-methyltransferase NSD2 (Homo sapiens, UniProt O96028); type: biochemical
T5 sequence (O96028 whole entry): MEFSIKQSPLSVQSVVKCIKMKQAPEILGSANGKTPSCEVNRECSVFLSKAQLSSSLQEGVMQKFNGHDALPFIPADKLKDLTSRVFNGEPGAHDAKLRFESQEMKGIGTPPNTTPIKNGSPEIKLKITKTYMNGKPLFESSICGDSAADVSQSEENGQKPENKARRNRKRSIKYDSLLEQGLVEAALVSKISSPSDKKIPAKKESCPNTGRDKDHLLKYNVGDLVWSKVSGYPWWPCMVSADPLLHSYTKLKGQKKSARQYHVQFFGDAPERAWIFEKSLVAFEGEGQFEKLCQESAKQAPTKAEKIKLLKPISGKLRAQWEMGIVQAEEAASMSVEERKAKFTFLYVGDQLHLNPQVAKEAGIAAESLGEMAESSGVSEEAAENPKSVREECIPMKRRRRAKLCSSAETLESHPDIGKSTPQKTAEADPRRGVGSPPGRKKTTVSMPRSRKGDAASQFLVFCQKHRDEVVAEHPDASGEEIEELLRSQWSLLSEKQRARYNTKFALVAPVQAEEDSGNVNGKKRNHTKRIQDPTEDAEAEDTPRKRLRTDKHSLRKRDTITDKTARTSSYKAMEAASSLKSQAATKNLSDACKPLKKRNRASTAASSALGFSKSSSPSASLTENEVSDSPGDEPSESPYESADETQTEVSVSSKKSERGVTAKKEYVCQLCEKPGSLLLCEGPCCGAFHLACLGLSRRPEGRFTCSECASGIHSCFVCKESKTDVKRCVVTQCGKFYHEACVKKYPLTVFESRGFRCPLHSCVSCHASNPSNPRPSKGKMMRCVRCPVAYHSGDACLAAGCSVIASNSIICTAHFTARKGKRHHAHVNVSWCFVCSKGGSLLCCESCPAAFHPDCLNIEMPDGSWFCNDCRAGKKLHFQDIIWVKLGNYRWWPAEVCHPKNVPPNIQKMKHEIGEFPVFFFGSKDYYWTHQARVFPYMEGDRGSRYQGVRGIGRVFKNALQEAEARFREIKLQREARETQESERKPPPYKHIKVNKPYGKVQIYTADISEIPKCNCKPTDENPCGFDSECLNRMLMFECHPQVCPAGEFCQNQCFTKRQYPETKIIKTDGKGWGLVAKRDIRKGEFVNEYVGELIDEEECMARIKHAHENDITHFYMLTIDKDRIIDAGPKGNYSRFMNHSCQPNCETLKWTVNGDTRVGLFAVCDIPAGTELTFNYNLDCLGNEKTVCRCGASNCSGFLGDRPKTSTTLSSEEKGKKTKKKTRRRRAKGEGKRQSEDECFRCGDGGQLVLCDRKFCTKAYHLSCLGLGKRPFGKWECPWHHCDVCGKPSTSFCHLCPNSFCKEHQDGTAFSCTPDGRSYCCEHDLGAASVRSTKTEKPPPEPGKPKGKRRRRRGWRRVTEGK

[10] = target: T6, Estrogen receptor (Homo sapiens, UniProt P03372);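 further: potency for inhibiting coactivator peptide recruitment to the receptor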
T6 sequence (P03372 whole entry): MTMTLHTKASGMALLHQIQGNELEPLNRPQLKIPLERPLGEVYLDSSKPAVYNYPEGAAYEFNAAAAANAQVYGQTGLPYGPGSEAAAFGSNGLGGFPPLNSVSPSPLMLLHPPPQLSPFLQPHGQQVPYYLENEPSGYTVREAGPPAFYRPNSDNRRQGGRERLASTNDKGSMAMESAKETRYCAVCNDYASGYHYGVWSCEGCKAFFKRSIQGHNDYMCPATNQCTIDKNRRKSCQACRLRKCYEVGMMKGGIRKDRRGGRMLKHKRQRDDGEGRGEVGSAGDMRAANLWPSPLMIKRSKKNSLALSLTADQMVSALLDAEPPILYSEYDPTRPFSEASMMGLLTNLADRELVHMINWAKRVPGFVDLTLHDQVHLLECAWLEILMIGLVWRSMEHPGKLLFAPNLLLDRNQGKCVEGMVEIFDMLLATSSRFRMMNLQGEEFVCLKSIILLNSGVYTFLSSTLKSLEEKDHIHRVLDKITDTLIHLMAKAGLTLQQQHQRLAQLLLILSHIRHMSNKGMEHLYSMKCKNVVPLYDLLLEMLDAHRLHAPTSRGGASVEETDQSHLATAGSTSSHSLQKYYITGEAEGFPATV

[11] = target: T2, Estrogen receptor beta
[12] = target: T7, Carboxy-terminal domain RNA polymerase II polypeptide A small phosphatase 1 (Homo sapiens, UniProt Q9GZU7); assay: inhibitors of CTDSP1, concentration-response testing, biochemical assay, absorbance-based, actives from ultra-high-throughput screening (AID 540297); type: functional
T7 sequence (Q9GZU7 whole entry): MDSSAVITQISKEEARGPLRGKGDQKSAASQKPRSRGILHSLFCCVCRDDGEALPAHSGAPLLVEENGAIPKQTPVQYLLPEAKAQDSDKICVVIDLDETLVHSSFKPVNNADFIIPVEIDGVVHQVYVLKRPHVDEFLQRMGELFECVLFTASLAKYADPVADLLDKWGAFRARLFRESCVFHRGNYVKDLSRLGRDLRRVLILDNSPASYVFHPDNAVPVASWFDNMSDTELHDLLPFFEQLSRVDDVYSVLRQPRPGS

[13] = target: Leucine aminopeptidase (Plasmodium falciparum 3D7, UniProt Q8IL11); assay: P. falciparum M17LAP inhibitors, primary screen, biochemical, fluorogenic H-Leu-NHMec substrate, 1536-well (AID 1619); type: functional
Chain of Leucine aminopeptidase (Q8IL11 whole entry): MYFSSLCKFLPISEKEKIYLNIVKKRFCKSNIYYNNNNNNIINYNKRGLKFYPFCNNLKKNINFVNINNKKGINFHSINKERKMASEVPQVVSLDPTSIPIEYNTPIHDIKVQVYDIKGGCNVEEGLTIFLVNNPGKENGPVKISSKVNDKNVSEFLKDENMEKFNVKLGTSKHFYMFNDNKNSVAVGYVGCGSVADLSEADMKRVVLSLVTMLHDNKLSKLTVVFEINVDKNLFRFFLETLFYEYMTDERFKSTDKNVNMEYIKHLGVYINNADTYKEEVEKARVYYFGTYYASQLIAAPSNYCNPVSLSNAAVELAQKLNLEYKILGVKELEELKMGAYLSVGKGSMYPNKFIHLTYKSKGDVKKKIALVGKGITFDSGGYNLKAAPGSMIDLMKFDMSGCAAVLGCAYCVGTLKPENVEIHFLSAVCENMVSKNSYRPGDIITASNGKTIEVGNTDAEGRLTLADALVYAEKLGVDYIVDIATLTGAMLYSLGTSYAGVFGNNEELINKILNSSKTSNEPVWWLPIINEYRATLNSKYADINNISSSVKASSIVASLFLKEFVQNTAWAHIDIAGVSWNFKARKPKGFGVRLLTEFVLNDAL

[14] = target: T8, Mannose-6-phosphate isomerase (Homo sapiens, UniProt P34949); assay: human PMI inhibitors, high substrate, primary screen, biochemical, fluorescence intensity, high mannose 6-phosphate (AID 1220)
T8 sequence (P34949 whole entry): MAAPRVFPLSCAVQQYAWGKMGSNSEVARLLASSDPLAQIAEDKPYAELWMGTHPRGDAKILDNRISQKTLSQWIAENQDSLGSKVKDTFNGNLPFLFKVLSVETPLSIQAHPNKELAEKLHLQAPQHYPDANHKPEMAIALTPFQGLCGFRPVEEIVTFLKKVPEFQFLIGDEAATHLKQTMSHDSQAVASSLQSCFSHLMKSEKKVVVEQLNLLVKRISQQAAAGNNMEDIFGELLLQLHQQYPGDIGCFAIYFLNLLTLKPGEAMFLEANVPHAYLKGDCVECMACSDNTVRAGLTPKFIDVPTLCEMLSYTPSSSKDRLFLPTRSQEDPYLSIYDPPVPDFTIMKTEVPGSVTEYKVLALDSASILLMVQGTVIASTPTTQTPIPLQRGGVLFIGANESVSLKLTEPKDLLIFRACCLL

[15] = target: Albumin (Bos taurus, UniProt P02769); assay: Counterscreen for inhibitors of T-cell receptor (TCR)-CD3 interaction: Fluorescence-based biochemical high throughput dose response assay to identify inhibitors of T-cell receptor (TCR)-CD3 interaction using a TAMRA-labeled BSA probe.; type: functional
Chain of Albumin (P02769 whole entry): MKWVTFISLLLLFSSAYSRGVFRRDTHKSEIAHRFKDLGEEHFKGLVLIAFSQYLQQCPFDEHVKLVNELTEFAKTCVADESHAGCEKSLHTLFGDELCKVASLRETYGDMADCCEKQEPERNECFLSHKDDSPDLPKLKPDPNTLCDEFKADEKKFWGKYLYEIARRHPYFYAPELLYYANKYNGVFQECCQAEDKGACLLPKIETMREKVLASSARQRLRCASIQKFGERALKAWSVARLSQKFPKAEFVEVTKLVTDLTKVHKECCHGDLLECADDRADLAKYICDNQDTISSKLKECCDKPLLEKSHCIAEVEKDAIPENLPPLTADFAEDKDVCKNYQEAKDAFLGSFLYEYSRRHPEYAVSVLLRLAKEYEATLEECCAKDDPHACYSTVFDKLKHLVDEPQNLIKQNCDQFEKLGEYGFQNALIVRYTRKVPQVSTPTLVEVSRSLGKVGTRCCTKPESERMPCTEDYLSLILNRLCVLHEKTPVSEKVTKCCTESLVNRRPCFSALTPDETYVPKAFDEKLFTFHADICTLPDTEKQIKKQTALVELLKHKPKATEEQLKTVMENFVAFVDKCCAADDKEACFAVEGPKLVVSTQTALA

[16] = target: Glucose-6-phosphate 1-dehydrogenase (Homo sapiens, UniProt P11413); assay: human G6PD enzyme inhibitors, dose response, selectivity assay for P. falciparum G6PD inhibitor project, biochemical, fluorescence (AID 504792); type: functional
Chain of Glucose-6-phosphate 1-dehydrogenase (P11413 whole entry): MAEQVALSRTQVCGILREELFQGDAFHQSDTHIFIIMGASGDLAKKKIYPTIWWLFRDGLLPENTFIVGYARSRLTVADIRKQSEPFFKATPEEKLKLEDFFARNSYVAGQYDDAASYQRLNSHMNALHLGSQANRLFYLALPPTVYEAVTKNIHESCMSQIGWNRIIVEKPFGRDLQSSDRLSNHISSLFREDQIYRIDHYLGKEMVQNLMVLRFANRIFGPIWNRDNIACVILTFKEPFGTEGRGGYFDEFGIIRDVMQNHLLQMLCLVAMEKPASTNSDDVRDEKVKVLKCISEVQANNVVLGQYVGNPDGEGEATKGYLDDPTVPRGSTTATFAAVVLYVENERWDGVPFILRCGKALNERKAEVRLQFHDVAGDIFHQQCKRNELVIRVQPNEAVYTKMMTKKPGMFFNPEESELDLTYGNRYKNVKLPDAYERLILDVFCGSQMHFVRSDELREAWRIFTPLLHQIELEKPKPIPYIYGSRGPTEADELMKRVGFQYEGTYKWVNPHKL

[17] = target: Genome polyprotein (dengue virus type 2, UniProt P29990); assay: Dengue-2 NS5 methyltransferase inhibitors, primary screen, biochemical, confirmation dose response (AID 588689); type: functional
Chain of Genome polyprotein (P29990 2492-3391 limits assumed): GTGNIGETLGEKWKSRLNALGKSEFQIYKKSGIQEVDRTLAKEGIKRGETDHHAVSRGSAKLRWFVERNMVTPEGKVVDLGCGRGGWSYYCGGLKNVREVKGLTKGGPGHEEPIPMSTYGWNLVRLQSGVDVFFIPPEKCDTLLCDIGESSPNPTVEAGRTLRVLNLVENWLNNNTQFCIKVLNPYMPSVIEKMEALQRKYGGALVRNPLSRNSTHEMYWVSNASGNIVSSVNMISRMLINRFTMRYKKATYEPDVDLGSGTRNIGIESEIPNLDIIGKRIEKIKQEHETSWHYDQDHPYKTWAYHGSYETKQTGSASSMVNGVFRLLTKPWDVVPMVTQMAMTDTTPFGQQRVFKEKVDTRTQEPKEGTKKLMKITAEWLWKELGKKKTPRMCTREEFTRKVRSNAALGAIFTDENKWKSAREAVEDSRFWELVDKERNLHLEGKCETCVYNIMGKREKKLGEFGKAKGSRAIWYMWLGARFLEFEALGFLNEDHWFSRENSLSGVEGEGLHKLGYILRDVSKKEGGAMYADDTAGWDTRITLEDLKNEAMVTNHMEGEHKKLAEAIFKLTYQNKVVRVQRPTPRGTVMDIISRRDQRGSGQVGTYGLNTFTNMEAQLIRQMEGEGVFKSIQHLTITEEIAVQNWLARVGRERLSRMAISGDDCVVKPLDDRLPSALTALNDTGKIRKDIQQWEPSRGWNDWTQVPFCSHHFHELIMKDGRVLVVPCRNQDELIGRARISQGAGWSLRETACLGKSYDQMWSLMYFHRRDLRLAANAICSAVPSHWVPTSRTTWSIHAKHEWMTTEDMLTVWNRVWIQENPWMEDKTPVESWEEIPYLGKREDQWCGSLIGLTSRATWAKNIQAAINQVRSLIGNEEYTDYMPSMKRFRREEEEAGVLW

[18] = target: Intestinal-type alkaline phosphatase (Homo sapiens, UniProt P09923); assay: inhibition of human intestinal alkaline phosphatase – biochemical, dose response (AID 488876); type: functional
[19] = target: T9, Alkaline phosphatase, tissue-nonspecific isozyme (Homo sapiens, UniProt P05186); assay: TNAP enzyme inhibition by screening hits, dose response, selectivity assay for mouse IAP inhibitor project, biochemical, human TNAP, uHTS hits (AID 488906); type: functional
T9 sequence (P05186 whole entry): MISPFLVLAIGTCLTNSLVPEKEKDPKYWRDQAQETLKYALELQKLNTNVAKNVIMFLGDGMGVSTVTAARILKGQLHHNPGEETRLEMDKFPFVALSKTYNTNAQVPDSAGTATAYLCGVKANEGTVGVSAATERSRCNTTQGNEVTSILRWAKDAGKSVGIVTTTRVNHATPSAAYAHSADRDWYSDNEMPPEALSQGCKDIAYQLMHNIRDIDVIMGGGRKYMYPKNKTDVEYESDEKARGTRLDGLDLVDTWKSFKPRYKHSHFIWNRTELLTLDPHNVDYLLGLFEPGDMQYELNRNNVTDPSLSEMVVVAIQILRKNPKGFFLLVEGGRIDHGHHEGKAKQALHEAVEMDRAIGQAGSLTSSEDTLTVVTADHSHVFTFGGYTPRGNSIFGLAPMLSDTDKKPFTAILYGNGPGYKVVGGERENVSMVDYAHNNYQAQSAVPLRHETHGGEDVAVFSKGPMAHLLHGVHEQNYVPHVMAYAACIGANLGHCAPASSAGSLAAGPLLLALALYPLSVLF

[20] = target: Intestinal-type alkaline phosphatase (Mus musculus, UniProt P24822); assay: PubChem AID 488785; type: functional
Chain of Intestinal-type alkaline phosphatase (Mus musculus, UniProt P24822) (P24822 whole entry): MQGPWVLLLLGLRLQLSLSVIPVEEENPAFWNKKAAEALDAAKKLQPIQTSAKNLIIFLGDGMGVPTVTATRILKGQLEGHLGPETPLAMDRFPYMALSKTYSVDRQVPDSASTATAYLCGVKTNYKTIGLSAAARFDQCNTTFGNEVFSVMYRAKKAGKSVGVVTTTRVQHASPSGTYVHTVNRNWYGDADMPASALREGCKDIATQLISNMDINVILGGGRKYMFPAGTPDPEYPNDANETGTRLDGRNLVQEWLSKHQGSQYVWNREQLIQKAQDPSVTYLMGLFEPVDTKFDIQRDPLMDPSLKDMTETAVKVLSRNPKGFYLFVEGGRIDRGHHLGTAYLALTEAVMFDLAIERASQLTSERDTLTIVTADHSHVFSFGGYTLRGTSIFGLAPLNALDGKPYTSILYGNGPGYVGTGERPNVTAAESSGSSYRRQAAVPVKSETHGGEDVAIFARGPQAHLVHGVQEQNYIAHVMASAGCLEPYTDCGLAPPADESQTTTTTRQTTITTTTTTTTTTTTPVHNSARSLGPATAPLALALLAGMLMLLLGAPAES

Chain of Induced myeloid leukemia cell differentiation protein Mcl-1 (Q07820 whole entry): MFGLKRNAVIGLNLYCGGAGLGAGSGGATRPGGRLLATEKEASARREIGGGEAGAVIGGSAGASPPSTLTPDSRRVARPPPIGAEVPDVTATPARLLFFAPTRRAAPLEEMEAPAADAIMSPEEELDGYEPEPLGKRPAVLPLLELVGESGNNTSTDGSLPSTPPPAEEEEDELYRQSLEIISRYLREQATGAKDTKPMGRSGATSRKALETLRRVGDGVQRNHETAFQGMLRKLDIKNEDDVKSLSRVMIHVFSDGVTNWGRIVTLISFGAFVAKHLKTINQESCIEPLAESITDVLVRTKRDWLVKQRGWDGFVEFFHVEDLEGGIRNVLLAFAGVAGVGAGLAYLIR

- IC50 [1]: > 1.34 µM (active)
- IC50 [2]: 3.79 µM (active)
- IC50 [3]: > 50 µM (not active)
- IC50 [4]: 360 nM (active)
- IC50 [5]: 8.49 µM (active)
- IC50 [6]: 76.4 µM (active)
- IC50 [7]: > 109 µM (not active)
- IC50 [8]: > 10 µM (not active)
- AC50 [9]: > 20 µM (inactive)
Compound: c1coc(-c2nc(-c3ccco3)c(-c3ccco3)nc2-c2ccco2)c1

- IC50 [3]: 0.127 µM (not active)
- IC50 [10]: 9.49 µM (active)
- IC50 [11]: 5.52 µM (active)
- IC50 [12]: 3.87 µM (active)
Compound: CC1CCN(S(=O)(=O)c2ccc(NC(=O)Cc3cccs3)cc2)CC1

- IC50 [13]: 4.71 µM (active)
Compound: CCCCc1ccc(C(=O)NC(C(=O)O)C(C)C)cc1 (stereo unspecified)

Compound: O=C(CCc1ccc(S(=O)(=O)N2CCOCC2)cc1)N/N=C/c1ccc(O)c(O)c1O
- IC50 [14]: 16.4 µM (active)
- IC50 [1]: 2.33 µM (active)
- IC50 [15]: > 94.1 µM (inactive)
- IC50 [16]: 48.7 µM (inactive)
- IC50 [7]: > 109 µM (not active)
- IC50 [17]: 51.3 µM (active)

- IC50 [3]: 6.16 µM (not active)
- IC50 [10]: 18.7 µM (active)
- IC50 [18]: > 100 µM (inactive)
- IC50 [19]: > 100 µM (inactive)
- IC50 [11]: 3.85 µM (active)
- IC50 [20]: 11.3 µM (active)
Compound: CN(c1ccccc1C(=O)O)S(=O)(=O)c1ccc2c3c(cccc13)C(=O)N2
